Test results: ChEMBL document CHEMBL1201862, “PubChem BioAssay data set” (2004)
Active and inactive are the calls of the source.

Assays:
cells = assay type: functional
Protein skinhead-1 = target: T1, Protein skinhead-1 (Caenorhabditis elegans, UniProt P34707); assay type: functional
T1 sequence (P34707 whole entry): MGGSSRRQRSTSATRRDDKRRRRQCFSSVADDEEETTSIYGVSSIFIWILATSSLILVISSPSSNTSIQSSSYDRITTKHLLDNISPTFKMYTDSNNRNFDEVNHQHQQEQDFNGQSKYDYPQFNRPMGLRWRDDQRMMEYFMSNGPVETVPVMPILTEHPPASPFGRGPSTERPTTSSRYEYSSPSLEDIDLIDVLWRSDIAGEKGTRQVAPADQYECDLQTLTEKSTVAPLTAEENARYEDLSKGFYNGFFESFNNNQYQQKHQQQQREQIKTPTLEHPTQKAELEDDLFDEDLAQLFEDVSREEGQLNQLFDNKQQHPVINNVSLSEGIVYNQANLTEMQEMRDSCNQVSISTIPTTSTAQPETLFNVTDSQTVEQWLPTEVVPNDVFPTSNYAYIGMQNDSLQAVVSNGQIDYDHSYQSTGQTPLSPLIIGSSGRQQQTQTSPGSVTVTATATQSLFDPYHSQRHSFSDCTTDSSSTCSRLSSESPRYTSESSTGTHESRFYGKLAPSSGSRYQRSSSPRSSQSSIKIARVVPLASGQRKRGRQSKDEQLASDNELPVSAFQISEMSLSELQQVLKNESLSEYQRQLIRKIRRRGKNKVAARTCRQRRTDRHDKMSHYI

[1] = target: Eukaryotic translation initiation factor 4E (Mus musculus, UniProt P63073); assay: eIF4E–eIF4G protein interaction inhibitors, dose response, biochemical, TR-FRET (AID 855); assay type: functional;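 also: potency for disrupting eIF4E binding to eIF4GI seen as loss of FRET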
Chain of Eukaryotic translation initiation factor 4E (P63073 whole entry): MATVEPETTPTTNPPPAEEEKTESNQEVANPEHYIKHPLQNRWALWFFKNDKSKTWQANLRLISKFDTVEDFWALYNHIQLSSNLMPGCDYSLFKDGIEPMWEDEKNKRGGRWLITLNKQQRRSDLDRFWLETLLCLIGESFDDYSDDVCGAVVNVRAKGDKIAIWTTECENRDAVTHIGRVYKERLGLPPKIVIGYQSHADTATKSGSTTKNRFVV

[2] = target: T2, Corticotropin-releasing factor receptor 2/Corticotropin-releasing factor-binding protein (Homo sapiens, UniProt P24387+Q13324); assay: activators of CRF receptor 2 with binding protein – uHTS hits, confirmation (AID 602473); assay type: functional; settings: read-out: EC50_Mean
T2 sequence (Q13324 whole entry): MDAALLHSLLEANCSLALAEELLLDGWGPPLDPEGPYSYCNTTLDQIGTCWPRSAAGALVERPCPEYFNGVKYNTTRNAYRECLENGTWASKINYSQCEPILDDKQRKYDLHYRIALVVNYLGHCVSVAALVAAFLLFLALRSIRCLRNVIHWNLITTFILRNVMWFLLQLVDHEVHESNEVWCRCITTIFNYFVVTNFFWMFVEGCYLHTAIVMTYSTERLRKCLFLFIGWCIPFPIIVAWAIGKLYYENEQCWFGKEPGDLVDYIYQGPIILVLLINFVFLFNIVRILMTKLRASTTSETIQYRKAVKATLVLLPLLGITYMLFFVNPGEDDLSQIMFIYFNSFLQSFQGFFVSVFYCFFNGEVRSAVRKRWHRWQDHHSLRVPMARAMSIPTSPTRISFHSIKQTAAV
T2 sequence (P24387 whole entry): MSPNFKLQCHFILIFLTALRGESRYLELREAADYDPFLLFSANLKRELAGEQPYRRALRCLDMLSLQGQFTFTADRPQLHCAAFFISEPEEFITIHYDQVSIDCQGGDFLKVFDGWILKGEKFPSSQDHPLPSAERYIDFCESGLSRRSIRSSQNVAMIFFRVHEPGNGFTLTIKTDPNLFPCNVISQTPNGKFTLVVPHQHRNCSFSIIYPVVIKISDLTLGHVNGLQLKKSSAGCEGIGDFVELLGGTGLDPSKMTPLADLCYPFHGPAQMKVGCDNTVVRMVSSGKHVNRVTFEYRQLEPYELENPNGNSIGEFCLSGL

[3] = target: T2, Corticotropin-releasing factor receptor 2/Corticotropin-releasing factor-binding protein; assay: Dose Response confirmation of uHTS hits for small molecule antagonists of the CRF-binding protein and CRF-R2 receptor complex.; assay type: functional; settings: read-out: IC50_Mean
H9c2 = assay: cells; assay type: functional, cell-based; settings: Rattus norvegicus, H9c2, Myocardium;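 also: confirmatory concentration-response retest of ultra-high-throughput screening hits for modulation of myocardial damage; cell death induced by hydrogen peroxide oxidative stress; compound pretreatment for 60 min then peroxide exposure for 2 h; potency is for protecting the cells against peroxide damage rather than for killing them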
Large T antigen = Large T antigen (Simian virus 40, UniProt P03070); assay type: functional, Betapolyomavirus macacae;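 also: Confirmatory-stage PubChem screen for compounds that inhibit SV40 T antigen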
Chain of Large T antigen (P03070 whole entry): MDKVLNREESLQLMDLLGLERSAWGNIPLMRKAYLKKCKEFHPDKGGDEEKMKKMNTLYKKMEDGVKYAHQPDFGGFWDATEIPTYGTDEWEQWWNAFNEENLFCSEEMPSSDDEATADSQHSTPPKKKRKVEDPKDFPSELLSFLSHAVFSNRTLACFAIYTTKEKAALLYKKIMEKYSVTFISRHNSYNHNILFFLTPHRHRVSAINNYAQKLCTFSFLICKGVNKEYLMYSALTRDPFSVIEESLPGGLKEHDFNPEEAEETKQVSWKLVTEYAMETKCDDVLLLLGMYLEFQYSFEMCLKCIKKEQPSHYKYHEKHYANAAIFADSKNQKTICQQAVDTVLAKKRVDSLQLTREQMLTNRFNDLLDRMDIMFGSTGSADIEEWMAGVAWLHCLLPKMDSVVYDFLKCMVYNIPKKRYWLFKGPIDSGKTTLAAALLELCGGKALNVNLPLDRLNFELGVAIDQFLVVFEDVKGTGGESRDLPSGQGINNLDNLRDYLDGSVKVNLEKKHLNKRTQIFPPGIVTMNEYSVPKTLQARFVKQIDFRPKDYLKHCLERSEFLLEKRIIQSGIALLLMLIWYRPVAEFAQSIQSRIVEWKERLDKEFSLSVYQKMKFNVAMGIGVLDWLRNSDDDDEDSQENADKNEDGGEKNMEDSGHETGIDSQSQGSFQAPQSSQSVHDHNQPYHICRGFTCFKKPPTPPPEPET

[4] = target: FAD-linked sulfhydryl oxidase ALR (Homo sapiens, UniProt P55789); assay: inhibitors of human ALR sulfhydryl oxidase, dose response, biochemical, H2O2 detection, luminescence, cherry-pick (AID 493248)
Chain of FAD-linked sulfhydryl oxidase ALR (P55789 whole entry): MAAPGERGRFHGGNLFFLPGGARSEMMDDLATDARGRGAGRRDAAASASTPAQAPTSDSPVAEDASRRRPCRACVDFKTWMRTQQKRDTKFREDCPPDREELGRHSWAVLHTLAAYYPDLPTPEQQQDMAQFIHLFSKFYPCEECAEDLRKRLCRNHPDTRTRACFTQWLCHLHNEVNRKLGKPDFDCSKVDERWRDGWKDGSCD

Cytochrome P450 1A2 = target: T3, Cytochrome P450 1A2 (Homo sapiens, UniProt P05177);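 also: PubChem cytochrome P450 panel assay, CYP1A2 panel member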
T3 sequence (P05177 whole entry): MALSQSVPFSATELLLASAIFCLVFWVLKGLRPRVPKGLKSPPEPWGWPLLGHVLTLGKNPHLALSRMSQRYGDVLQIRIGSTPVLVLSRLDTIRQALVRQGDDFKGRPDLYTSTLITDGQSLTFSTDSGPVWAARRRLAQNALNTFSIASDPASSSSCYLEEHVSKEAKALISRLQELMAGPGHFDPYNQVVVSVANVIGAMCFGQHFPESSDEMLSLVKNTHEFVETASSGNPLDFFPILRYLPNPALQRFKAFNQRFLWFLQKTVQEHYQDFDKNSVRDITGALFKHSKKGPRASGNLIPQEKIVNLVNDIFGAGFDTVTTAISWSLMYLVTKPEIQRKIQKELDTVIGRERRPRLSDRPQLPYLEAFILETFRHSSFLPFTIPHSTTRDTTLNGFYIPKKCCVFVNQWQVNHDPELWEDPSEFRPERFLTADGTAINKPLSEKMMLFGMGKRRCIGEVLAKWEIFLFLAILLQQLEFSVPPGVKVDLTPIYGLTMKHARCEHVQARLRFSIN

Cytochrome P450 2D6 = Cytochrome P450 2D6 (Homo sapiens, UniProt P10635);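 also: CYP2D6 member of a cytochrome P450 panel assay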
Chain of Cytochrome P450 2D6 (P10635 whole entry): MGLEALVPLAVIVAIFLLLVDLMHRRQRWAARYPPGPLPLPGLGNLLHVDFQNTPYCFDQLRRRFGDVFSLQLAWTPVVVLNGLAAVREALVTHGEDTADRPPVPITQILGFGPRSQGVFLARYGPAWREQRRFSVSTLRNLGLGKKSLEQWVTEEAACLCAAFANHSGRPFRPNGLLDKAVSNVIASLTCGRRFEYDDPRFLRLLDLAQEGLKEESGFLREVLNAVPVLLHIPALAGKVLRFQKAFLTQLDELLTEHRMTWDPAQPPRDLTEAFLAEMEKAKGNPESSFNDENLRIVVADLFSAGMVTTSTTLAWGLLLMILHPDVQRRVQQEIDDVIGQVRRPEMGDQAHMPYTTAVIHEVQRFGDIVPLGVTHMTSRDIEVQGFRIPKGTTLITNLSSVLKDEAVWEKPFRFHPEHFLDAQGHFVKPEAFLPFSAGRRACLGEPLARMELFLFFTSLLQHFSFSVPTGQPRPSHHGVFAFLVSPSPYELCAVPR

H4 = assay: Luminescence Cell-Based Dose Response HTS to Identify Activators of 5'UTR Stem-Loop Driven Prion Protein mRNA Translation in H4 Neuroglioblastoma Cells. [Related pubchem assays: 1829 (Project Summary), 1814 (Primary HTS)]; assay type: functional; settings: Homo sapiens
[5] = Luminescence Cell-Based Dose Response HTS to Identify Activators of Luciferase Translation or Activity in H4 […] Cells. [Related pubchem assays: 1829 (Project Summary), 1814 (Primary HTS)]; assay type: functional
[6] = target: T4, Rac GTPase-activating protein 1 (Homo sapiens, UniProt Q9H0H5); assay: MgcRacGAP GTPase-activating activity inhibitors, confirmation, biochemical, ADP Hunter fluorescence, primary and confirmatory (AID 624330); assay type: functional
T4 sequence (Q9H0H5 whole entry): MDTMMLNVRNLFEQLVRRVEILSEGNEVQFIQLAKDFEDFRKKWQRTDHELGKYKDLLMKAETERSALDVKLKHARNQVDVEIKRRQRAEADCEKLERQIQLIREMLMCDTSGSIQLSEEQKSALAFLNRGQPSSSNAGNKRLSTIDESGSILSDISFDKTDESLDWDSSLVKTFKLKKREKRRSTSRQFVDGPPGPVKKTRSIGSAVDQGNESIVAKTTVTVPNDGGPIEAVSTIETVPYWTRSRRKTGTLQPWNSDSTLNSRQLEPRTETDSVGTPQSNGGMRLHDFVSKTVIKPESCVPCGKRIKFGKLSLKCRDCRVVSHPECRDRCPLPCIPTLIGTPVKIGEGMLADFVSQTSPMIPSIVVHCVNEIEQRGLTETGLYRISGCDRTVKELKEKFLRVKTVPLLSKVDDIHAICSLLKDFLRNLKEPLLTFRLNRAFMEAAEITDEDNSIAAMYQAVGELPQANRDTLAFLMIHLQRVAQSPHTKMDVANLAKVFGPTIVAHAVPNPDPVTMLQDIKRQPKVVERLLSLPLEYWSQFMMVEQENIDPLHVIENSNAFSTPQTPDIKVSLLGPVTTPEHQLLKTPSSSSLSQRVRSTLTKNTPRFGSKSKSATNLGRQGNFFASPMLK

For `CN1CCC(O)(c2ccccc2)C(C(=O)c2ccccc2)C1` (centres undefined), the IC50 (cells) was 36.1 µM (active).
For `CCOC(=O)COc1ccc(C2CC(C)=NN2c2ccccc2)cc1` (centres undefined), the IC50 (cells) was 4.31 µM (active).
For `Cc1ccc2c([N+](=O)[O-])c(C)ccc2n1`, the IC50 (Protein skinhead-1) was > 100 µM (inactive).
For `O=C1CN(C(=O)c2cccs2)c2ccccc2N1`, the IC50 [1] was > 64 µM (inactive).
For `Cc1ccc(S(=O)(=O)Nc2cc(O)nc(SCC(=O)Nc3cccc(C(F)(F)F)c3)n2)cc1`, the EC50 [2] was > 53 µM (inactive) and the IC50 [3] was > 47.1 µM (inactive).
With `CCOC(=O)C1=NN(C(=O)c2ccco2)C2(CC2)C1` the IC50 (H9c2) was > 79 µM (inactive).
For `CCOc1ccc(OCC)c(NC(=O)CSCC(=O)O)c1`, the IC50 (Protein skinhead-1) was > 100 µM (inactive).
With `COc1ccc(C(=O)ON=C(N)Cc2ccc(Cl)c(Cl)c2)cc1OC` the EC50 [2] was > 53 µM (inactive) and the IC50 [3] was 7.41 µM (active).
For `CC1CN(C(=O)c2cccs2)CCN1C(=O)c1cccs1` (centres undefined), the IC50 (Protein skinhead-1) was > 100 µM (inactive).
For `CCNc1nc(NC(C)CC)nc(Oc2ccc(OCC)nn2)n1` (centres undefined), the EC50 [2] was > 53 µM (inactive) and the IC50 [3] was > 47.1 µM (inactive).
In the case of `CCOC(=O)N1CCN(C(=O)CSc2nnc(CNC(=O)c3ccccc3F)o2)CC1`, the EC50 [2] was > 53 µM (inactive) and the IC50 [3] was > 47.1 µM (inactive).
In the case of `COC(=O)CC(=O)N1CCN(c2ccc(Cl)c(Cl)c2)CC1`, the IC50 (cells) was 25.5 µM (active).
For `CN(C)c1ccc(NC(=O)c2ccc(N3CCOCC3)nc2)cc1`, the IC50 (Large T antigen) was 6.98 µM (active).
For `O=[N+]([O-])c1cc(-c2nnc(O)c3ccccc23)ccc1NCCO`, the IC50 (H9c2) was 16.6 µM (active).
In the case of `Cc1cccc([N+]2=C3CCCCN3C(O)(c3cccs3)C2)c1` (centres undefined), the EC50 [2] was > 53 µM (inactive) and the IC50 [3] was > 47.1 µM (inactive).
For `COCc1c(C(=O)Nc2ccc3nc(N4CCOCC4)sc3c2)oc2ccccc12`, the IC50 (H9c2) was > 79 µM (inactive).
With `O=C(CSc1nnc(-c2ccccc2)n1C1CCCCC1)Nc1ccc(S(=O)(=O)Nc2ccccn2)cc1` the IC50 [1] was > 64 µM (inactive).
With `CCC(=O)c1ccc(OCC(=O)OCC(=O)c2cc(C)n(C3CC3)c2C)cc1` the IC50 (cells) was 9.8 µM (active).
In the case of `CC(C)(C)n1nnnc1C(c1ccncc1)N1CCN(c2ccc(O)cc2)CC1` (centres undefined), the IC50 (Large T antigen) was 13.9 µM (active) and the AC50 [4] was 3.48 µM (active).
In the case of `O=C1CCc2nc3ccccc3c(=O)n2N1`, the EC50 [2] was > 53 µM (inactive) and the IC50 [3] was > 47.1 µM (inactive).
With `O=C(c1ccccc1)c1cnc2cc3c(cc2c1O)OCCO3` the IC50 (Protein skinhead-1) was > 100 µM (inactive).
For `c1cc2c(nn1)CCc1nonc1-2`, the IC50 (Protein skinhead-1) was > 100 µM (inactive).
For `O=C(CCn1nc(-c2ccccc2)ccc1=O)N1CCOCC1`, the EC50 [2] was > 53 µM (inactive) and the IC50 [3] was > 47.1 µM (inactive).
With `O=C(NCCN1C(=O)C2C3C=CC(C3)C2C1=O)Nc1ccccc1O` (centres undefined) the IC50 (Protein skinhead-1) was > 100 µM (inactive).
For `CCN(C(=O)c1ccco1)c1nc(-c2ccc(OC)cc2)cs1`, the IC50 (Protein skinhead-1) was > 100 µM (inactive).
With `Cc1cc(N2CCOCC2)n2nc(C)c(-c3ccccc3)c2n1` the IC50 [1] was > 64 µM (inactive).
For `CCNC(S)=Nc1cc(OCC)c(N2CCOCC2)cc1OCC`, the IC50 (Large T antigen) was > 100 µM (active).
With `CCCCOc1ccc(C(=O)N/C(=C\c2ccc(OC)cc2)C(=O)OCc2ccco2)cc1` the AC50 (Cytochrome P450 1A2) was 14.1 µM (inconclusive), the AC50 (Cytochrome P450 2D6) was 7.94 µM (inconclusive) and the IC50 (H9c2) was > 79 µM (inactive).
With `CN(C)c1ccc(NC(=O)CSc2nc3c(c(=O)[nH]2)CCCC3)cc1` the IC50 (Large T antigen) was 5.87 µM (active).
For `CCc1ccc(NC(=O)c2ccccc2NC(=O)C2CCCO2)cc1` (centres undefined), the EC50 (H4) was 2.64 µM (active).
In the case of `CN1CCN(c2ccc(NC(=O)c3ccc(Oc4ccccc4)cc3)cc2)CC1`, the IC50 (Protein skinhead-1) was 23.6 µM (active).
With `CCO/C(O)=C1/C(C)=NC(SCC(=O)OC)=C(C#N)C1c1ccc(C(=O)OC)cc1` (centres undefined) the EC50 [2] was > 53 µM (inactive) and the IC50 [3] was < 0.368 µM (active).
In the case of `COc1cc(OC)cc(OC(=O)c2ccc3c(=O)n4c(nc3c2)CCC4)c1`, the IC50 (cells) was 9.14 µM (active).
In the case of `CC1C(=O)C(C)C(c2cc(Br)ccc2O)NC1c1cc(Br)ccc1O` (centres undefined), the EC50 [2] was > 53 µM (inactive) and the IC50 [3] was > 47.1 µM (inactive).
With `COc1cc(-c2cc3nc(NCCOc4ccccc4)ccn3n2)cc(OC)c1OC` the IC50 (H9c2) was > 79 µM (inactive).
With `O=C(NCCO)c1cccc(-c2ccc3nncn3c2)c1` the IC50 (Protein skinhead-1) was > 100 µM (inactive).
For `Cc1sc2nc(CSCC(=O)N(CCC#N)c3ccccc3F)nc(O)c2c1C`, the IC50 (H9c2) was > 79 µM (inactive).
For `NC(=O)c1ccccc1/N=C/c1ccc2ccccc2c1`, the EC50 [5] was 1.14 µM (active) and the EC50 (H4) was 0.197 µM (active).
For `Sc1nnc(-c2ccco2)n1/N=C/c1ccc(Br)s1`, the IC50 [1] was > 64 µM (inactive).
For `COc1cc(/C=N/Nc2nc(N3CCCC3)nc(N3CCCC3)n2)ccc1O`, the IC50 (Large T antigen) was 15.2 µM (active) and the IC50 [6] was 64.3 µM (active).
